Reference: ChEMBL document CHEMBL1629692, “Susceptibility of gram-negative pathogens isolated from patients with complicated intra-abdominal infections in the United States, 2007-2008: results of the Study for Monitoring Antimicrobial Resistance Trends (SMART)” (2010)

Legend:
Type in all cases: functional
[1] = tested on: Proteus mirabilis; experiment: Antimicrobial activity against extended-spectrum beta-lactamase-positive Proteus mirabilis assessed as percent susceptible isolates by agar dilution method in presence of beta-lactamase inhibitor Sulbactam
[2] = tested on: Escherichia coli; experiment: Antimicrobial activity against Escherichia coli obtained from patient with complicated intra-abdominal infection assessed as percent susceptible isolates by agar dilution method in presence of beta-lactamase inhibitor Sulbactam
[3] = tested on: Klebsiella aerogenes; experiment: Antimicrobial activity against Enterobacter aerogenes obtained from patient with complicated intra-abdominal infection assessed as percent susceptible isolates by agar dilution method in presence of beta-lactamase inhibitor Sulbactam
[4] = tested on: Enterobacter cloacae; experiment: Antimicrobial activity against Enterobacter cloacae obtained from patient with complicated intra-abdominal infection assessed as percent susceptible isolates by agar dilution method in presence of beta-lactamase inhibitor Sulbactam
[5] = tested on: Citrobacter freundii; experiment: Antimicrobial activity against Citrobacter freundii obtained from patient with complicated intra-abdominal infection assessed as percent susceptible isolates by agar dilution method in presence of beta-lactamase inhibitor Sulbactam
[6] = tested on: Klebsiella pneumoniae; experiment: Antimicrobial activity against extended-spectrum beta-lactamase-positive Klebsiella pneumoniae assessed as percent susceptible isolates by agar dilution method in presence of beta-lactamase inhibitor Sulbactam
[7] = tested on: Pseudomonas fluorescens; experiment: Antimicrobial activity against Pseudomonas fluorescens assessed as percent susceptible isolates by agar dilution method in presence of beta-lactamase inhibitor Sulbactam
[8] = tested on: Klebsiella oxytoca; experiment: Antimicrobial activity against extended-spectrum beta-lactamase-positive Klebsiella oxytoca assessed as percent susceptible isolates by agar dilution method in presence of beta-lactamase inhibitor Sulbactam
[9] = tested on: Pasteurella sp.; experiment: Antimicrobial activity against Pasteurella sp. assessed as percent susceptible isolates by agar dilution method in presence of beta-lactamase inhibitor Sulbactam
[10] = tested on: Escherichia coli; experiment: Antimicrobial activity against extended-Spectrum beta-lactamase-negative Escherichia coli obtained from patient with complicated intra-abdominal infection assessed as percent susceptible isolates by agar dilution method in presence of beta-lactamase inhibitor Sulbactam
[11] = tested on: Klebsiella pneumoniae; experiment: Antimicrobial activity against extended-spectrum beta-lactamase-negative Klebsiella pneumoniae assessed as percent susceptible isolates by agar dilution method in presence of beta-lactamase inhibitor Sulbactam
[12] = tested on: Klebsiella pneumoniae; experiment: Antimicrobial activity against Klebsiella pneumoniae assessed as percent susceptible isolates by agar dilution method in presence of beta-lactamase inhibitor Sulbactam
[13] = tested on: Escherichia coli; experiment: Antimicrobial activity against extended-spectrum beta-lactamase-positive Escherichia coli obtained from patient with complicated intra-abdominal infection assessed as percent susceptible isolates by agar dilution method in presence of beta-lactamase inhibitor Sulbactam
[14] = tested on: Acinetobacter sp.; experiment: Antimicrobial activity against Acinetobacter sp. assessed as percent susceptible isolates by agar dilution method in presence of beta-lactamase inhibitor Sulbactam
[15] = tested on: Serratia marcescens; experiment: Antimicrobial activity against Serratia marcescens assessed as percent susceptible isolates by agar dilution method in presence of beta-lactamase inhibitor Sulbactam
[16] = tested on: Stenotrophomonas maltophilia; experiment: Antimicrobial activity against Stenotrophomonas maltophilia assessed as percent susceptible isolates by agar dilution method in presence of beta-lactamase inhibitor Sulbactam

Work on `CC1(C)S[C@@H]2[C@H](NC(=O)[C@H](N)c3ccccc3)C(=O)N2[C@H]1C(=O)O` [AMPICILLIN] yielded an Activity [1] of 97%, an Activity [2] of 62% and an Activity [3] of 21%. It also gave an Activity [4] of 17%, an Activity [5] of 61% and an Activity [6] of 3%. For the same compound, the Activity [7] was 46%, the Activity [8] was 57% and the Activity [9] was 46%. The Activity [10] was 64%, the Activity [11] was 83% and the Activity [12] was 69%. The Activity [13] was 24%, the Activity [14] was 46% and the Activity [15] was 13%. It also gave an Activity [16] of 46%.
